# In article PMC10706087, “The Subtype Selectivity in Search of Potent Hypotensive Agents among 5,5-Dimethylhydantoin Derived α1-Adrenoceptors Antagonists” (International Journal of Molecular Sciences, 2023):
# Where a name gives a salt, the structure may show the parent alone.
# Experiments:
# [1] = test system: arterial blood pressure of normotensive Wistar rats; assay: Influence on blood pressure in normotensive anesthetized rats after i.v. administration; assay type: in vivo, rat; conditions: for Diastolic blood pressure / Systolic blood pressure: 1.0 mg/kg i.v., mean, n = 6
# Outline: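 Normotensive rats were given thiopental (75 mg/kg) intraperitoneally as anesthesia. A heparinized saline-filled polyethylene tube was placed in the left carotid artery, and blood pressure was recorded with a PowerLab Apparatus. Compounds dissolved in ethyl alcohol 5% − kolliphor 5% − water 90% were injected intravenously at 1 mL/kg after 20 min of stabilization. Pressures were compared by two-way ANOVA with Sidak's post-hoc test.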
# [2] = target: α1-adrenoceptors (α1-ARs), rat cerebral cortex; conditions: published previously; read-out: α1-adrenoceptor affinity Ki; cited from earlier work
# α1D- and α1A-AR subtype = test system: α1D- and α1A-AR subtype; design: method as in PMID 21753885; conditions: cited from earlier work
# [3] = 0 min (initial, before administration)
Compound,"Diastolic blood pressure [1, 3]","Systolic blood pressure [1, 3]",Diastolic blood pressure ([1]; 5 min),Systolic blood pressure ([1]; 5 min),Diastolic blood pressure ([1]; 10 min),Systolic blood pressure ([1]; 10 min),Diastolic blood pressure ([1]; 20 min),Systolic blood pressure ([1]; 20 min),Diastolic blood pressure ([1]; 30 min),Systolic blood pressure ([1]; 30 min),Diastolic blood pressure ([1]; 40 min),Systolic blood pressure ([1]; 40 min),Diastolic blood pressure ([1]; 50 min),Systolic blood pressure ([1]; 50 min),Diastolic blood pressure ([1]; 60 min),Systolic blood pressure ([1]; 60 min),"lowest hypotensive (effective) dose ([1]; i.v., normotensive anesthetized rats) [mg/kg]",Ki [2] [nM],higher affinity for α1D- than for α1A-AR subtype (α1D- and α1A-AR subtype) [fold]
"COc1ccccc1N1CCN(CCCNc2cc(=O)n(C)c(=O)n2C)CC1 [Urapidil, urapidil hydrochloride, reference compound]",93.0,127.3,77.5,111.3,75.5,109.5,76.0,110.2,78.8,112.2,79.2,112.7,80.8,114.0,81.2,115.0,1.0,128,–
COc1ccccc1N1CCN(CC(O)COc2cccc3ccccc23)CC1 (stereo not shown) [naftopidil],–,–,–,–,–,–,–,–,–,–,–,–,–,–,–,–,–,–,3
